From patent US4920231A, “Process of braking triflouromethyl compounds” (Roussel Uclaf, priority 1988, dated 1990)
Values after ≈ are worked out from the molar mass of the structure shown.

Tests used:
Assay type in all cases: in vivo
[1] = system: house-fly; experiment: Study of lethal activity on the house-fly (topical application); conditions: four-day old female house-flies, topical 1 μl acetone solution on dorsal thorax, mortality at 24 hours; without synergist or with piperonyl butoxide (table does not say which)
Method: A. Study of lethal activity on the house-fly
The insects tested were four-day old female house-flies and the test was carried out by topical application of 1 μl of acetone solution on the dorsal thorax of the insects using an Arnold micromanipulator. 50 individuals per treatment were used and a mortality check was carried out 24 hours after treatment. The tests were carried out without a synergist or with the addition of piperonyl butoxide (10 parts of synergist per 1 part of test compound). The experimental results, given in the following table, are expressed in LD 50 (in nanograms) necessary to kill 50% of the insects: […]

[2] = system: Aphis cracivora; experiment: Study of the lethal effect on Aphis cracivora (contact-injection method, treated broad-bean leaf); conditions: 7-day old adults, contact with treated leaf for one hour, mortality after 24 hours
Method: B. Study of the lethal effect on Aphis cracivora
7-day old adults were used and 10 aphids per concentration used were employed. A contact-injection method was used and the treatment of a broad-bean leaf was carried out with a Fisher gun, the leaf being placed in a plastic Petri dish on a circle of damp paper. The treatment was carried out with 2 ml of acetone solution of the product under test (1 ml per side of leaf). The infestation by the insects was brought about after drying the leaf and the insects were kept in contact with the leaf for one hour. Insects were placed on untreated leaves and the mortality was checked after 24 hours.

[3] = system: Boophilus microplus larvae; experiment: Study of the activity on Boophilus microplus larvae (spraying tower, % mortality); conditions: for activity on Boophilus microplus larvae (conclusion): 100, 10 and 1 ppm; for mortality at 1 ppm / mortality at 10 ppm / mortality at 100 ppm: Rhipicephalus microplus, in Bos taurus, larvae, after 24 hours
Method: C. Study of the acaricide activity in animals
(a) Study of the activity on Boophilus microplus larvae
(§1) The substance under test was dissolved in a mixture of dimethylformamide, emulsifiers and Arcopal so as to obtain a concentrate emulsifying at 10%. This concentrate was diluted with water to obtain solutions of the desired concentrations of 100, 10 and 1 ppm. Using a spraying tower, the various solutions were sprayed over the larvae of tropical cattle ticks of Boophilus microplus type, and after 24 hours, the percentage of mortality was determined by counting the living and dead larvae.

[4] = system: Boophilus microplus females; experiment: Study of the activity on inhibition of the reproduction of Boophilus microplus ticks; conditions: for activity on inhibition of reproduction of Boophilus microplus ticks (conclusion): 100 to 0.19 ppm; for inhibition at 0.19 ppm / inhibition at 0.38 ppm / inhibition at 0.75 ppm / inhibition at 1.5 ppm / inhibition at 3.1 ppm / inhibition at 6.2 ppm / inhibition at 12.5 ppm / inhibition at 25 ppm / inhibition at 50 ppm / inhibition at 100 ppm: Rhipicephalus microplus, 5 min, females submerged for 5 minutes
Method: as §1, with “larvae. The results are as follows:” for “larvae.”
(b) Study of the activity on inhibition of the reproduction of Boophilus microplus ticks
Boophilus microplus females, ready to lay eggs, were submerged for 5 minutes in the solutions prepared above and then they were placed in a heated chamber to lay the eggs. […]

In the case of `C[C@@H](OC(=O)[C@@H]1[C@@H](/C=C(/c2ccc(Cl)cc2)C(F)(F)F)C1(C)C)c1cccc(Oc2ccccc2)n1` [Example 3, 1-(6-phenoxy-2-pyridyl)-ethyl [1R-[1α(R*), 3β]]2,2-dimethyl-3-[(ΔZ)-2-(4-chlorophenyl)-3,3,3-trifluoro-1-propenyl]-cyclopropane carboxylate], the “LD 50” value [1] is reported as 19.6 ng/insect, the LC50 [2] is reported as 1.34 µg/mL (≈ 2.6 µM) and the “activity on Boophilus microplus larvae (conclusion)” value [3] is reported as “remarkable activity”. For the same molecule, the mortality at 1 ppm [3] was 100%, the mortality at 10 ppm [3] was 100% and the mortality at 100 ppm [3] was 100%. The “activity on inhibition of reproduction of Boophilus microplus ticks (conclusion)” value (“activity on inhibition” below) [4] was “remarkable activity”, the inhibition at 0.19 ppm [4] was 100% and the inhibition at 0.38 ppm [4] was 100%. It also gave an inhibition at 0.75 ppm [4] of 100%, an inhibition at 1.5 ppm [4] of 100% and an inhibition at 3.1 ppm [4] of 100%. It also gave an inhibition at 6.2 ppm [4] of 100%, an inhibition at 12.5 ppm [4] of 100% and an inhibition at 25 ppm [4] of 100%. It also gave an inhibition at 50 ppm [4] of 100% and an inhibition at 100 ppm [4] of 100%.

`CC(OC(=O)[C@@H]1[C@@H](/C=C(/c2ccc(Cl)cc2)C(F)(F)F)C1(C)C)c1cccc(Oc2ccccc2)n1` (stereo partly drawn) [Example 5, 1-(6-phenoxy-2-pyridyl)-ethyl [1R-(1α,(RS), 3β]] 2,2-dimethyl-3-[(ΔZ)-2-(4-chlorophenyl)-3,3,3-trifluoro-1-propenyl]-cyclopropane carboxylate] was tested, and the “activity on Boophilus microplus larvae (conclusion)” value [3] was “remarkable activity”, the mortality at 1 ppm [3] was 100% and the mortality at 10 ppm [3] was 100%. The “activity on inhibition” value [4] was “remarkable activity”, the inhibition at 0.38 ppm [4] was 85% and the inhibition at 0.75 ppm [4] was 100%. It also gave an inhibition at 1.5 ppm [4] of 100%, an inhibition at 3.1 ppm [4] of 100% and an inhibition at 6.2 ppm [4] of 100%. The inhibition at 12.5 ppm [4] was 100%, the inhibition at 25 ppm [4] was 100% and the inhibition at 50 ppm [4] was 100%. It also gave an inhibition at 100 ppm [4] of 100%.

In the case of `CC1(C)[C@H](/C=C(/c2ccc(Cl)cc2)C(F)(F)F)[C@H]1C(=O)O[C@H](C#N)c1ccc(F)c(Oc2ccccc2)c1` [Example 4, α-Cyano-4-fluoro-3-phenoxy-benzyl [1R-[1α(S*)-3β]-2,2-dimethyl-3-[(ΔZ) 2-(4-chlorophenyl)-3,3,3-trifluoro-1-propenyl]-cyclopropane carboxylate], the “LD 50” value [1] is reported as 5.3 ng/insect, the LC50 [2] is reported as 0.6 µg/mL (≈ 1.1 µM) and the “activity on Boophilus microplus larvae (conclusion)” value [3] is reported as “remarkable activity”. It also gave a mortality at 1 ppm [3] of 100%, a mortality at 10 ppm [3] of 100% and a mortality at 100 ppm [3] of 100%. The “activity on inhibition” value [4] was “remarkable activity”, the inhibition at 0.19 ppm [4] was 100% and the inhibition at 0.38 ppm [4] was 100%. It also gave an inhibition at 0.75 ppm [4] of 100%, an inhibition at 1.5 ppm [4] of 100% and an inhibition at 3.1 ppm [4] of 100%. The inhibition at 6.2 ppm [4] was 100%, the inhibition at 12.5 ppm [4] was 100% and the inhibition at 25 ppm [4] was 100%. The inhibition at 50 ppm [4] was 100% and the inhibition at 100 ppm [4] was 100%.
